Results: PMC12689286, “Enhanced therapeutics of cabazitaxel via polycarboxylate conjugation: improved solubility, safety, and antitumor efficacy” (Frontiers in Immunology, 2025)

Tests used:
[1] = Lipid-aqueous (octanol/water) partition coefficient; format: physicochemical; conditions: room temperature
Protocol: CTXs were dissolved in octanol, and an equal volume of water was added, followed by shaken at 100 rpm for 24 h at room temperature. The upper octanol phase and lower water phase were separated by centrifugation. The supernatant was analyzed by HPLC (Bruker SolanX 70 FT-MS; Agilent 6540TOF) ([21]).

H460 = test: MTS cytotoxicity, H460; format: cell-based; conditions: Homo sapiens, NCI-H460
Protocol: (§1) Human cancer cell lines were cultured in basic medium (10% fetal bovine serum (FBS)+1% double antibody solution) (Biological Industries) at 37°C in a 5% CO2 incubator. Effects of CTXs on cell proliferation and viability were measured by an MTS (Promega Corporation) assay. Absorbance values at 490 nm were measured using a microplate reader (Thermo Scientific, Varioskan Flash) ([22]).

H520 = test: MTS cytotoxicity, H520; format: cell-based; conditions: Homo sapiens, NCI-H520
Protocol: as §1

HT-29 = test: MTS cytotoxicity, HT-29; format: cell-based; conditions: Homo sapiens; HT-29, MTS
Protocol: as §1

PC-3 = test: MTS cytotoxicity, PC-3; format: cell-based; conditions: Homo sapiens; PC-3, MTS
Protocol: as §1

SK-OV-3 = test: MTS cytotoxicity, SK-OV-3; format: cell-based; conditions: Homo sapiens; SK-OV-3, MTS
Protocol: as §1

L-02 = test: MTS cytotoxicity, L-02 (non-tumor); format: cell-based; conditions: Homo sapiens, L02, L-02 non-tumor cell line
Protocol: as §1

3T3 = test: MTS cytotoxicity, 3T3 (non-tumor); format: cell-based; conditions: Mus musculus, NIH3T3, 3T3 non-tumor cell line
[2] = system: DU145 prostate cancer model; test: DU145 prostate cancer xenograft, tumor volume; format: in vivo, BALB/c nude mice; conditions: 3 μmol/kg tail vein, three times at 3-day intervals, control 500 ± 45 mm³
Protocol: (§2) All animal experiments were conducted in accordance with protocols approved by the Institutional Animal Care and Use Committee of Peking Union Medical College. Male BALB/c nude mice (6–8 weeks old) and female KM mice (6–8 weeks old) were purchased from Charles River Laboratories (Beijing, China) and maintained under specific pathogen-free conditions.
(§3) DU145 Prostate cancer model: DU145 cells (3×10^6 cells/mouse) were subcutaneously inoculated into the right flank of BALB/c nude mic. When tumors reached approximately 100 mm³, mice were randomly divided into four treatment groups (n=6/group): (a) Vehicle control; (b) CTX (3 μmol/kg); (c) CTX-TTHA (3 μmol/kg); (d) CTX-DTPA (3 μmol/kg). Treatments were administered via tail vein injection three times at 3-day intervals. Major organs were collected for histopathological examination after the final administration.

[3] = DU145 xenograft model, body weight; format: in vivo, BALB/c nude mice; conditions: 3 μmol/kg, by day 7
Protocol: as §2, §3

[4] = MCF-7 xenograft model, survival; format: in vivo, BALB/c nude mice; conditions: MCF-7 model, 9.6 μmol/kg, n=6
Protocol: as §2
MCF-7 Breast Cancer Model: Female BALB/c nude mice bearing MCF-7 xenografts (2×10^6 cells/mouse) were randomized into treatment groups as described above, with an adjusted dose of 9.6 μmol/kg for all CTX formulations.

thymus = test: Thymic toxicity in H22 tumor-bearing mice (thymus weight, thymocyte apoptosis); format: in vivo, KM mice
Protocol: H22 hepatoma model: Female KM mice were subcutaneously implanted with H22 cells (2×10^6 cells/mouse) and assigned to six groups: (a) Vehicle control; (b) CTX (9.6 μmol/kg in 5% glucose with 2.5% ethanol/2.5% Tween 80); (c) CTX-TTHA (9.6 μmol/kg in saline); (d) CTX-DTPA (9.6 μmol/kg in saline); (e) CTX-TTHA (19.1 μmol/kg in saline); (f) CTX-DTPA (19.1 μmol/kg in saline).
Gently mix 1×10^6 thymocytes with FITC Anexin V (5 μl) and PI (10 μl), and incubate in the dark for 15 minutes, RT. Analyze by flow cytometry. Thymocytes were stained with anti-mouse CD3e cyanine 5.5 (eBioscience, 85-45-0031-82), anti-CD4 PE (eBioscience, 85-12-0042-82), anti-CD8a FITC (4°C 30 min) and detected by flow cytometry.

[5] = Plasma pharmacokinetics (non-compartmental); conditions: for AUC(0-t) / Cmax / Vd / clearance: both, SD, rat, iv, 6 umol/kg
Protocol: Male and female SD rats (200–220 g) received intravenous injections of CTX or CTX-DTPA (6 μmol/kg). CTX was dissolved in 2.5% Tween 80/2.5% EtOH/saline, while CTX-DTPA used saline alone. Blood samples were collected at 5 min to 24 h post-dose. Tissues (heart, liver, spleen, lung, kidney, thymus) and excreta were collected at 15 min, 2 h, 4 h, and 12 h. Plasma and tissue samples were processed by liquid-liquid extraction with n-butanol and analyzed via LC-MS/MS (Agilent Poroshell 120 EC-C18 column; 0.05% formic acid/acetonitrile gradient). Pharmacokinetic parameters were calculated using DAS 2.0 via non-compartmental analysis.

[6] = system: rat red blood cells (RBCs); test: Hemolysis test; format: cell-based, SD rats; conditions: vs unmodified CTX
Protocol: The hemolytic potential of CTX formulations was evaluated using rat red blood cells (RBCs). Briefly, whole blood was collected from the abdominal aorta of anesthetized SD rats into ACD anticoagulant (blood:ACD = 1:4, v/v). The blood was diluted with normal saline (4:5, v/v) and centrifuged at 450 g for 10 min. The RBC pellet was washed three times with normal saline until the supernatant was clear. The washed RBCs were then resuspended in normal saline to prepare a 2% (v/v) suspension.
For the assay, 500 μL of the 2% RBC suspension was mixed with an equal volume of serially diluted drugs or controls in 1.5 mL tubes. The controls included: Negative control (0% hemolysis): normal saline. Positive control (100% hemolysis): distilled water. Solvent control: the vehicle for unmodified CTX (2.5% Tween 80 + 2.5% anhydrous ethanol + 95% normal saline). The mixtures were incubated at 37 °C for 1.5 h and then centrifuged at 450 g for 5 min. Subsequently, 150 μL of the supernatant from each tube was transferred to a 96-well plate, and the absorbance at 545 nm (OD545) was measured using a microplate reader. The percentage of hemolysis was calculated using the following formula: Hemolysis (%) = [(ODsample - ODnegative control)/(ODpositive control - ODnegative control)] × 100.

[7] = SD rats, 6 μmol/kg iv, plasma, dosed compound itself

Row | Compound | logP at 24 h [1] | IC50 (H460) [nM] | IC50 (H520) [nM] | IC50 (HT-29) [nM] | IC50 (PC-3) [nM] | IC50 (SK-OV-3) [nM] | IC50 (L-02) [nM] | IC50 (3T3) [nM] | final tumor volume [2] [mm³] | MRT0-t [5, 7] [H] | other results
1 | CO[C@H]1C(=O)[C@]2(C)[C@@H](OC)C[C@H]3OC[C@@]3(OC(C)=O)[C@H]2[C@H](OC(=O)c2ccccc2)[C@]2(O)C[C@H](OC(=O)[C@H](O)[C@@H](NC(=O)OC(C)(C)C)c3ccccc3)C(C)=C1C2(C)C [CTX, Cabazitaxel] | 4.55 ± 0.1 | 2.4 ± 1.3 | 1.5 ± 0.7 | 7.4 ± 3.4 | 5.2 ± 1.7 | 4.4 ± 0.9 | 7.8 ± 1.5 | 8.7 ± 3.2 | 254 ± 35 | 0.67 ± 0.09 | body weight loss [3]: > 15%; survival [4]: 83.3%; thymic weight relative to normal (thymic atrophy) (thymus): 31 % of normal weight; thymocyte apoptosis rate (thymus; Annexin V/PI flow cytometry): 66.8%; t1/2 [5, 7]: 1.27 ± 0.09 H; AUC(0-t) ([5]; plasma): 1680 ± 194 ng·h/mL; Cmax ([5]; plasma): 2930 ± 990 ng/mL; Vd ([5]; plasma): 5.53 ± 0.81 L/kg; clearance ([5]; plasma): 50.2 mL/min/kg
2 | COC1C(=O)C2(C)C(OC)CC3OCC3(OC(C)=O)C2C(OC(=O)c2ccccc2)C2(O)CC(OC(=O)C(OC(=O)CN(CCN(CCN(CC(=O)O)CC(=O)O)CC(=O)O)CC(=O)O)C(NC(=O)OC(C)(C)C)c3ccccc3)C(C)=C1C2(C)C (centres unmarked) [CTX-DTPA] | 0.49 ± 0.12 | 2.4 ± 1.1 | 2 ± 1.3 | 6.7 ± 2.9 | 4.1 ± 0.7 | 5.4 ± 1.3 | 8.8 ± 3.6 | 8.3 ± 2.7 | 244 ± 32 | 1.04 ± 0.57 | improvement in hemocompatibility over unmodified CTX [6]: 64 fold; elimination half-life relative to CTX ([5]; SD rats, 6 μmol/kg iv, longer than CTX): 5.1 fold; AUC(0-t) ([5]; in vivo): 1330 ± 777 ng·h/mL; Cmax ([5]; in vivo): 4360 ± 2880 ng/mL; Vd ([5]; in vivo): 69.9 L/kg; clearance ([5]; in vivo): 126 mL/min/kg
